ChEMBL document CHEMBL1155719, “Synthesis of phakellistatin 11: a micronesia (Chuuk) marine sponge cyclooctapeptide” (2001)
Converted amounts (≈) assume the structure as drawn. Residues, ends and D or L forms follow the SMILES beside them.

Experiments:
P388 [1] = assay: Cytotoxicity against mouse P388 cells; assay type: functional; conditions: read-out: ED50 (the source's name)
P388 [2] = assay: Cytotoxicity against mouse P388 cells by NMR biological activity study; assay type: functional; conditions: read-out: ED50 (the source's name)

Row | SMILES | EC50 (P388 [1]) [µg/mL] | EC50 (P388 [2]) [µg/mL]
1 | CC[C@H](C)[C@@H]1NC(=O)[C@@H]2CCCN2C(=O)[C@H](Cc2ccccc2)NC(=O)[C@@H]2CCCN2C(=O)[C@H](Cc2ccc(O)cc2)NC(=O)[C@@H]2CCCN2C(=O)[C@H]([C@@H](C)CC)NC1=O [PHAKELLISTATIN 2] (cyclo(FPIIPYP)) | 0.34 (≈ 0.411 µM) | –
2 | CC[C@H](C)[C@@H]1NC(=O)[C@@H]2CCCN2C(=O)[C@H](Cc2ccccc2)NC(=O)[C@@H]2CCCN2C(=O)[C@H](Cc2ccc(O)cc2)NC(=O)[C@@H]2CCCN2C(=O)[C@H]([C@@H](C)CC)NC1=O.Cl [PHAKELLISTATIN 2 (SYNTHETIC)] (cyclo(FPIIPYP)) | 24 | –
3 | CC[C@H](C)[C@@H]1NC(=O)[C@H](CC(C)C)NC(=O)[C@@H]2CCCN2C(=O)[C@H]([C@@H](C)CC)NC(=O)[C@@H]2CCCN2C(=O)[C@H](CO)NC(=O)[C@H](Cc2ccccc2)NC1=O [STYLOPEPTIDE] (cyclo(FSPIPLI)) | 0.1 (≈ 0.13 µM) | 6 (≈ 7.81 µM)
4 | CC[C@H](C)[C@@H]1NC(=O)[C@H](C)NC(=O)[C@H](CC(C)C)NC(=O)[C@H](CO)NC(=O)[C@H](CC(N)=O)NC(=O)[C@H](Cc2ccccc2)NC(=O)[C@@H]2CCCN2C1=O [STYLOSTATIN 1] (cyclo(AIPFNSL)) | 10 (≈ 13.5 µM) | –
